Activity calls are given as the source filed them.
Experiments:
Assay type in all cases: functional
[1] = target: Melanin-concentrating hormone receptor 1 (Homo sapiens, UniProt Q99705); assay: Late-stage fluorescence-based counterscreen for antagonists of the G-protein coupled receptor 7 (GPR7): cell-based dose response assay to identify antagonists of the melanin-concentrating hormone receptor 1 (MCHR1) Set 5.
[2] = target: T1, Neuropeptides B/W receptor type 1 (Homo sapiens, UniProt P48145); assay: GPR7 antagonist potency, late-stage follow-up, cell-based, fluorescence, dose response, set 5 (AID 588566)
T1 sequence (P48145 whole entry): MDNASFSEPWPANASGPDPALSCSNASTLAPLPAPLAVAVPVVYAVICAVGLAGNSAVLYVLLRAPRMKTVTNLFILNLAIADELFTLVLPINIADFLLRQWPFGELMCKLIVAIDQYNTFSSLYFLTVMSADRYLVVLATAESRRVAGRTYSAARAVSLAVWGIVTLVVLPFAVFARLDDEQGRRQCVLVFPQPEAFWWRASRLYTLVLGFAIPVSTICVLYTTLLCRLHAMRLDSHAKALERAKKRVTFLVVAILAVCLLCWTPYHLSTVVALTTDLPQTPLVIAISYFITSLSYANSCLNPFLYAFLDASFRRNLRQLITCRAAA

[3] = target: T2, Glycogen synthase kinase-3 beta (Homo sapiens, UniProt P49841); assay: GSK3beta kinase inhibitors, dose response, biochemical, microfluidics, dry powder samples, set 2 (AID 623989)
[4] = target: T3, Glycogen synthase kinase-3 alpha (Homo sapiens, UniProt P49840); assay: human GSK3 alpha kinase inhibition, dose response, selectivity assay for GSK3beta inhibitor project, biochemical, microfluidics, dry powder samples, set 2 (AID 623978)
[5] = target: Cyclin-dependent kinase 5/CDK5 activator 1 (Homo sapiens, UniProt Q00535); assay: CDK5-p25 kinase inhibition, dose response, selectivity assay for GSK3beta inhibitor project, biochemical, microfluidic mobility shift, dry powder, set 2 (AID 623979)
[6] = target: Dual specificity mitogen-activated protein kinase kinase 1 (Homo sapiens, UniProt Q02750); assay: Navigating the Kinome. Panel member name: MAP2K1
[7] = target: cAMP-dependent protein kinase catalytic subunit PRKX (Homo sapiens, UniProt P51817)
[8] = target: Cyclin-dependent kinase 8 (Homo sapiens, UniProt P49336); assay: Navigating the Kinome. Panel member name: CDK8
[9] = target: Dual specificity tyrosine-phosphorylation-regulated kinase 1A (Homo sapiens, UniProt Q13627);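 note: measured against DYRK1A as one member of a broad kinome profiling panel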
[10] = target: Ribosomal protein S6 kinase alpha-3 (Homo sapiens, UniProt P51812);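 note: measured within a kinome-wide profiling panel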
[11] = target: Dual specificity protein kinase CLK2 (Homo sapiens, UniProt P49760)
[12] = target: Cyclin-dependent kinase 19 (Homo sapiens, UniProt Q9BWU1); assay: Navigating the Kinome. Panel member name: CDC2L6
[13] = target: Mitogen-activated protein kinase kinase kinase kinase 4 (Homo sapiens, UniProt O95819)
[14] = target: Death-associated protein kinase 3 (Homo sapiens, UniProt O43293);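 note: measured as one member of a kinome-wide profiling panel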
[15] = target: Proto-oncogene tyrosine-protein kinase receptor Ret (Homo sapiens, UniProt P07949);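 note: measured within a kinome-wide profiling panel, RET as the panel member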
[16] = target: Casein kinase I isoform alpha (Homo sapiens, UniProt P48729)
[17] = target: Protein kinase C theta type (Homo sapiens, UniProt Q04759); assay: Navigating the Kinome. Panel member name: PRKCQ
[18] = target: Vascular endothelial growth factor receptor 1 (Homo sapiens, UniProt P17948);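 note: measured within a kinome-wide profiling panel, FLT1 as the panel member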
Aurora kinase A = Aurora kinase A (Homo sapiens, UniProt O14965);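 note: value from the Navigating the Kinome kinase panel profiling, panel entry STK6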
[19] = target: Tyrosine-protein kinase ABL1 (Homo sapiens, UniProt P00519)
[20] = target: T3, Glycogen synthase kinase-3 alpha
[21] = target: Leukocyte tyrosine kinase receptor (Homo sapiens, UniProt P29376); assay: Navigating the Kinome. Panel member name: LTK
[22] = target: Serine/threonine-protein kinase TBK1 (Homo sapiens, UniProt Q9UHD2); assay: Navigating the Kinome. Panel member name: TBK1
[23] = target: Cyclin-dependent kinase 7 (Homo sapiens, UniProt P50613);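 note: value comes from a kinome-wide kinase profiling panel in which CDK7 is one member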
[24] = target: T2, Glycogen synthase kinase-3 beta
Focal adhesion kinase 1 = Focal adhesion kinase 1 (Homo sapiens, UniProt Q05397);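 note: measured as one member of a kinome panel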
[25] = target: Serine/threonine-protein kinase D3 (Homo sapiens, UniProt O94806);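 note: determined within a kinase panel screen, with PRKCN as the panel member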
[26] = target: Macrophage-stimulating protein receptor (Homo sapiens, UniProt Q04912); assay: Navigating the Kinome. Panel member name: MST1R
[27] = target: Serine/threonine-protein kinase Chk1 (Homo sapiens, UniProt O14757);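 note: measured as one member of a kinome-wide kinase profiling panel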
[28] = target: 5'-AMP-activated protein kinase catalytic subunit alpha-1 (Homo sapiens, UniProt Q13131)
[29] = target: Tyrosine-protein kinase receptor TYRO3 (Homo sapiens, UniProt Q06418);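 note: TYRO3 value obtained as one member of a kinome-wide profiling panel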
LIM domain kinase 1 = LIM domain kinase 1 (Homo sapiens, UniProt P53667); assay: Navigating the Kinome. Panel member name: LIMK1
[30] = target: Calcium/calmodulin-dependent protein kinase type II subunit alpha (Homo sapiens, UniProt Q9UQM7); assay: Navigating the Kinome. Panel member name: CAMK2A
[31] = target: Serine/threonine-protein kinase pim-1 (Homo sapiens, UniProt P11309)
Aurora kinase B = Aurora kinase B (Homo sapiens, UniProt Q96GD4)
[32] = target: Fibroblast growth factor receptor 1 (Homo sapiens, UniProt P11362)
[33] = target: Dual specificity protein kinase CLK4 (Homo sapiens, UniProt Q9HAZ1)
[34] = target: Serine/threonine-protein kinase PAK 4 (Homo sapiens, UniProt O96013);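 note: value obtained within a kinome profiling panel in which PAK4 was one of the panel members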
Activin receptor type-1 = Activin receptor type-1 (Homo sapiens, UniProt Q04771); assay: Navigating the Kinome. Panel member name: ACVR1
[35] = target: ALK tyrosine kinase receptor (Homo sapiens, UniProt Q9UM73);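 note: ALK tested as one member of a kinase panel screen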
[36] = target: Dual specificity tyrosine-phosphorylation-regulated kinase 1B (Homo sapiens, UniProt Q9Y463); assay: Navigating the Kinome. Panel member name: DYRK1B
[37] = target: cAMP-dependent protein kinase catalytic subunit alpha (Homo sapiens, UniProt P17612)
[38] = target: Macrophage colony-stimulating factor 1 receptor (Homo sapiens, UniProt P07333);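 note: value comes from the Navigating the Kinome screening panel, CSF1R member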
[39] = target: Leucine-rich repeat serine/threonine-protein kinase 2 (Homo sapiens, UniProt Q5S007);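 note: value from a broad kinome-wide panel profiling study in which LRRK2 was one of the kinases tested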
[40] = target: Cyclin-dependent kinase 9 (Homo sapiens, UniProt P50750);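 note: value from the CDK9 entry of a kinome-spanning kinase panel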
[41] = target: Mitogen-activated protein kinase kinase kinase kinase 2 (Homo sapiens, UniProt Q12851);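 note: measured as one member of a kinome-wide kinase panel, with MAP4K2 as the panel entry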
[42] = target: Mitogen-activated protein kinase 8 (Homo sapiens, UniProt P45983);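 note: value comes from one member of a kinome-wide kinase profiling panel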
[43] = target: Rho-associated protein kinase 1 (Homo sapiens, UniProt Q13464);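 note: measured within a broad kinome-wide panel profiling many kinases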
[44] = target: Vascular endothelial growth factor receptor 2 (Homo sapiens, UniProt P35968)

T3 sequence (P49840 whole entry): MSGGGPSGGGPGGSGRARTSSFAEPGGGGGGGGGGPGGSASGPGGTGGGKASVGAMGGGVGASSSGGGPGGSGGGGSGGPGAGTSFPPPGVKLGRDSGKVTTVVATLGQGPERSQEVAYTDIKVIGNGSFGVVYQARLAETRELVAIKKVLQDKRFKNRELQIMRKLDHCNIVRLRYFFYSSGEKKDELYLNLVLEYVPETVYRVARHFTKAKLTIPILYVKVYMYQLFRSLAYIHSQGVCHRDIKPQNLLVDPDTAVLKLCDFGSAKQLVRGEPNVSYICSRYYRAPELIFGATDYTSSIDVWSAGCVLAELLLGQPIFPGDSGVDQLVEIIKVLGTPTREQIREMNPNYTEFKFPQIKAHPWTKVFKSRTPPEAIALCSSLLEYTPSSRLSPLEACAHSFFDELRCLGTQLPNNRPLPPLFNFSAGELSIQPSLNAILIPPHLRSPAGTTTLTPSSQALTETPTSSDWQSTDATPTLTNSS
T2 sequence (P49841 whole entry): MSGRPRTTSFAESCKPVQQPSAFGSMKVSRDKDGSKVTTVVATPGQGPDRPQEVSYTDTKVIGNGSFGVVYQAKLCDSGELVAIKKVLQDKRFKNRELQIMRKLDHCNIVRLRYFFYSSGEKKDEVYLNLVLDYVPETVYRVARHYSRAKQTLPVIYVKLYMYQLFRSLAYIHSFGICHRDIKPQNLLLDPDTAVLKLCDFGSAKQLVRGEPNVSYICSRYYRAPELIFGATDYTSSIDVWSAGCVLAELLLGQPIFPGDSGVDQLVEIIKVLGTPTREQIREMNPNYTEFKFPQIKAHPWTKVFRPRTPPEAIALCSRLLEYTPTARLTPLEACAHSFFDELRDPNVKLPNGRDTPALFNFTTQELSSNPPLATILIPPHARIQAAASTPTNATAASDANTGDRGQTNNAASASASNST
Serine/threonine-protein kinase D3, sequence (O94806 whole entry): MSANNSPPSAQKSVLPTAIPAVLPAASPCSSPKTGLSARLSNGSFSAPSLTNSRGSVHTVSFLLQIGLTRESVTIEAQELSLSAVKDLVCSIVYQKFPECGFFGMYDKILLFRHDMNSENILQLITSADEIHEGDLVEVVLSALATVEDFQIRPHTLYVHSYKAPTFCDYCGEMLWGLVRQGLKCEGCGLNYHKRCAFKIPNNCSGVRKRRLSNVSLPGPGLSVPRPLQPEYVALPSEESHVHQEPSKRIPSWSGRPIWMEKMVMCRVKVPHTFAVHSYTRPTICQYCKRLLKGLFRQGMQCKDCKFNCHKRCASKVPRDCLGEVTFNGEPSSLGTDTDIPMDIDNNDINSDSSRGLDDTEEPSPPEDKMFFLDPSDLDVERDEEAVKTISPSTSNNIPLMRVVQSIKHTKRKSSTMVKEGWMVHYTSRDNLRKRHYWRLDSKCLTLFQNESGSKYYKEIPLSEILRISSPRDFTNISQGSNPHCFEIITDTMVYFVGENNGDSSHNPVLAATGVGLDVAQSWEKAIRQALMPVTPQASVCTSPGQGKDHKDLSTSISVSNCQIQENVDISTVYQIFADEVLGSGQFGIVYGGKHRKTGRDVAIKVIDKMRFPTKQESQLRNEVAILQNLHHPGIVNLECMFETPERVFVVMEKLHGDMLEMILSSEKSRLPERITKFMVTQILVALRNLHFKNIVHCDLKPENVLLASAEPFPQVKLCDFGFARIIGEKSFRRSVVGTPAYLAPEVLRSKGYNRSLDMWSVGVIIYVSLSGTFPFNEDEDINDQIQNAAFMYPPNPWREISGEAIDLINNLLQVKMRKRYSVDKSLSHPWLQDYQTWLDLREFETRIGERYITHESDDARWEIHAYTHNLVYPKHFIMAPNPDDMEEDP
Serine/threonine-protein kinase TBK1, sequence (Q9UHD2 whole entry): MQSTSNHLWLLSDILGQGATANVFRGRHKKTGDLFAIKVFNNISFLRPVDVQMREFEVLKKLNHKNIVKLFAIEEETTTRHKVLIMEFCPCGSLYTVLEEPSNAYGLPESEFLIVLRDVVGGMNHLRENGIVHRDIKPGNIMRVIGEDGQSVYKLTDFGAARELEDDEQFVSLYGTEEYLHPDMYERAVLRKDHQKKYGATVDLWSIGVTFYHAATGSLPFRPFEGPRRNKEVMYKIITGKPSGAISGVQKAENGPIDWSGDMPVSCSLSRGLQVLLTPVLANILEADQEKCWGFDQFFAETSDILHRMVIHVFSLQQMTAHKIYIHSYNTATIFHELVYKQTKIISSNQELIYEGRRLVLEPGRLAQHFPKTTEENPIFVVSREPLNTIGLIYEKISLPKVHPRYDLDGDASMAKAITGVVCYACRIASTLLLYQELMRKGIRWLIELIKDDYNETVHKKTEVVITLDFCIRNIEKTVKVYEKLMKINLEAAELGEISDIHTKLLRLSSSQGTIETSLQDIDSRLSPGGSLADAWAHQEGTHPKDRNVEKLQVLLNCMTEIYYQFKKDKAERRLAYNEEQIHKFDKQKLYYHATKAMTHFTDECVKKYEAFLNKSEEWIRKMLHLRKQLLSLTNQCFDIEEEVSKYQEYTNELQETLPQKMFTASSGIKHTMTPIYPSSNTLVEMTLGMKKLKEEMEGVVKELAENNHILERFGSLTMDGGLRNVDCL
Calcium/calmodulin-dependent protein kinase type II subunit alpha, sequence (Q9UQM7 whole entry): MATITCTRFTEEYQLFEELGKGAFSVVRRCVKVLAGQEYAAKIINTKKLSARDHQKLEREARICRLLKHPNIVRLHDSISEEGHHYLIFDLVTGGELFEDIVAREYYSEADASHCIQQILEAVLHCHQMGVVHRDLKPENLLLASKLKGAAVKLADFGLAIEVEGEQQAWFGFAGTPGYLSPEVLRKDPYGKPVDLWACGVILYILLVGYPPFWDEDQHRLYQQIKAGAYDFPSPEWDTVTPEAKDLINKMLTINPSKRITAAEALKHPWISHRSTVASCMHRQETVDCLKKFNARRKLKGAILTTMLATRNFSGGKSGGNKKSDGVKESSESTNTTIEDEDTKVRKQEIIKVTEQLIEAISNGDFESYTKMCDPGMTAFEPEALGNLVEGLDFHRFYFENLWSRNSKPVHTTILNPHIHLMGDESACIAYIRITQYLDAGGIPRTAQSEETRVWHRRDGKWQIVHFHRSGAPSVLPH
Casein kinase I isoform alpha, sequence (P48729 whole entry, canonical isoform): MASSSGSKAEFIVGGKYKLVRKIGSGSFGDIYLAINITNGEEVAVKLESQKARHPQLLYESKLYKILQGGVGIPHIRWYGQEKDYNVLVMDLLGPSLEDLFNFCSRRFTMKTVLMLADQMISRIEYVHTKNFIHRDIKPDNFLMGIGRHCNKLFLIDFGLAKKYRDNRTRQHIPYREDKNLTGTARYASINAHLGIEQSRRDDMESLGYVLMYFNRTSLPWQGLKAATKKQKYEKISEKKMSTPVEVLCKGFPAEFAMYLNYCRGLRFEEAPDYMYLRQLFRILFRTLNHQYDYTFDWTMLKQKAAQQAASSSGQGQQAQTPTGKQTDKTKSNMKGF
Cyclin-dependent kinase 5/CDK5 activator 1, sequence (Q00535 whole entry): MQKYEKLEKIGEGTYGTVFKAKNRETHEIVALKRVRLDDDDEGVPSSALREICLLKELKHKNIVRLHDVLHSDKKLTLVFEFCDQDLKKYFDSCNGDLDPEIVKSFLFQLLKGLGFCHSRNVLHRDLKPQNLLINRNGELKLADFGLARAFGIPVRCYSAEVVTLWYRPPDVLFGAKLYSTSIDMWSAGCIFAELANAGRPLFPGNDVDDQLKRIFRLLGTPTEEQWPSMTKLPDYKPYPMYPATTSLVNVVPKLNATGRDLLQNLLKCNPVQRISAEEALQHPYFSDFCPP
Cyclin-dependent kinase 5/CDK5 activator 1, sequence (Q15078 whole entry, further chain): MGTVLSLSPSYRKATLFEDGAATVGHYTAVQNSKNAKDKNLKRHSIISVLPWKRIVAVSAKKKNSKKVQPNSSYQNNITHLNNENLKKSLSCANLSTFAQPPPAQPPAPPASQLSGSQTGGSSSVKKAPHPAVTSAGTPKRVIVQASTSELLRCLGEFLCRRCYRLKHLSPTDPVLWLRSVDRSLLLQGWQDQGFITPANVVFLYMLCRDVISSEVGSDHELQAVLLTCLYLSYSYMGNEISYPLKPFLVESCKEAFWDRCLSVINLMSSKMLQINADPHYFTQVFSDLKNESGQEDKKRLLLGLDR
Dual specificity protein kinase CLK2, sequence (P49760 whole entry): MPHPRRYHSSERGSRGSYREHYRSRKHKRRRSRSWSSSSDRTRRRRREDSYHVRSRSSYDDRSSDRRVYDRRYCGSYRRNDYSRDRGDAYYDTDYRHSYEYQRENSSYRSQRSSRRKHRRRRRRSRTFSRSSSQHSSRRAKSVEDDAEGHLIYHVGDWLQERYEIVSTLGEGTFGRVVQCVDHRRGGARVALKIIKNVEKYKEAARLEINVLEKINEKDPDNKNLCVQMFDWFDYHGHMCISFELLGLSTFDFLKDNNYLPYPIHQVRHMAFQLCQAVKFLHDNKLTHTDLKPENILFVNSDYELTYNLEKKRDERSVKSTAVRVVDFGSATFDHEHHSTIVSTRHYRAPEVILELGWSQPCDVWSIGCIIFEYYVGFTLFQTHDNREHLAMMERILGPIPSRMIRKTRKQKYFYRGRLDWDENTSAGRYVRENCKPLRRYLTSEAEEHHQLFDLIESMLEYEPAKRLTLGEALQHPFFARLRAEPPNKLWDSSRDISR
Aurora kinase A, sequence (O14965 whole entry): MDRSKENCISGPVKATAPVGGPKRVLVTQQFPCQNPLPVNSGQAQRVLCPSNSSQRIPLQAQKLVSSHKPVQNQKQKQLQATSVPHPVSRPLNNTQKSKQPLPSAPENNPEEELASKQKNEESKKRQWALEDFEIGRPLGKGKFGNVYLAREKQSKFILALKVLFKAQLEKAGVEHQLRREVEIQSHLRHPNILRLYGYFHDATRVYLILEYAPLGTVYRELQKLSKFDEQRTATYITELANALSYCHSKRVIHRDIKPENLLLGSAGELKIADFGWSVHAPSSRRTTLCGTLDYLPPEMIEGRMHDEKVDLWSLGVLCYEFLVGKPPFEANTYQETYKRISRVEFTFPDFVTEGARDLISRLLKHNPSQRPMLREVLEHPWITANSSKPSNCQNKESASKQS

## COc1cccc(C(C#N)c2c(Cl)cnn(Cc3cccc4ccccc34)c2=O)c1 (centres undefined)
[1]
  IC50: 12.1 µM (inactive)
[2]
  IC50: 0.569 µM (active)

## COc1cc(/C=N/n2c(S)nnc2C2CCCCC2)cc(Br)c1O
[3]
  AC50: 0.958 µM (active)
[4]
  AC50: 10.4 µM (active)
[5]
  AC50: 16.8 µM (active)

## NC(=O)c1cc2ccncc2s1
[6]
  Ki: 10 µM (active)
[7]
  Ki: 15.8 µM (active)
[8]
  Ki: 0.794 µM (active)
[9]
  Ki: 3.16 µM (active)
[10]
  Ki: 25.1 µM (active)
[11]
  Ki: 15.8 µM (active)
[12]
  Ki: > 100 µM (inactive)
[13]
  Ki: 25.1 µM (active)
[14]
  Ki: 2.51 µM (active)
[15]
  Ki: 63.1 µM (active)
[16]
  Ki: 1.58 µM (active)
[17]
  Ki: 3.16 µM (active)
[18]
  Ki: 7.94 µM (active)
Aurora kinase A
  Ki: 63.1 µM (active)
[19]
  Ki: 79.4 µM (active)
[20]
  Ki: 3.98 µM (active)
[21]
  Ki: 12.6 µM (active)
[22]
  Ki: 79.4 µM (active)
[23]
  Ki: 12.6 µM (active)
[24]
  Ki: 5.01 µM (active)
Focal adhesion kinase 1
  Ki: 100 µM (active)
[25]
  Ki: 39.8 µM (active)
[26]
  Ki: 39.8 µM (active)
[27]
  Ki: 12.6 µM (active)
[28]
  Ki: 31.6 µM (active)
[29]
  Ki: 79.4 µM (active)
LIM domain kinase 1
  Ki: 15.8 µM (active)
[30]
  Ki: 79.4 µM (active)
[31]
  Ki: 39.8 µM (active)
Aurora kinase B
  Ki: 31.6 µM (active)
[32]
  Ki: 63.1 µM (active)
[33]
  Ki: 0.794 µM (active)
[34]
  Ki: 79.4 µM (active)
Activin receptor type-1
  Ki: 79.4 µM (active)
[35]
  Ki: 63.1 µM (active)
[36]
  Ki: 1.26 µM (active)
[37]
  Ki: 3.98 µM (active)
[38]
  Ki: > 100 µM (inactive)
[39]
  Ki: 10 µM (active)
[40]
  Ki: 0.501 µM (active)
[41]
  Ki: 10 µM (active)
[42]
  Ki: 63.1 µM (active)
[43]
  Ki: 1.58 µM (active)
[44]
  Ki: 7.94 µM (active)

Source: ChEMBL document CHEMBL1201862, “PubChem BioAssay data set” (2004)
